Drawing on patent US12220437B2, “Oncolytic virus improved in safety and anticancer effect” (BIONOXX INC., priority 2017, dated 2025), this text covers apoptosis rate for one compound.

Assay [1] relates to A549 cells. Nature of the assay: Annexin V/PI staining, flow cytometry (FACS). The class given is cell-based, human. As for the experimental part:
(§1) In addition, the apoptosis and necrosis according to the combined administration of OTS-412 and GCV were confirmed by flow cytometry (FACS). Specifically, A549 and NCI-H460 cell lines were treated with GCV alone, OTS-412 alone, or a combination of OTS-412 and GCV, respectively, and the cells were subjected to Annexin V/PI staining followed by flow cytometry. At this time, the viability of cell was determined based on the facts that: both Annexin V and PI are negative in living cells; Annexin V is positive in the early stage of apoptosis, wherein the permeability of cell membrane changes; and both Annexin V and PI are positive at the end of apoptosis, wherein the nucleus is exposed by destruction of the cell membrane.

Assay [2] deals with NCI-H460 cells. The assay can be described thus: Annexin V/PI staining, flow cytometry (FACS). The format is cell-based, human. As for the experimental part: as §1

Regarding `Nc1nc2c(ncn2COC(CO)CO)c(=O)[nH]1` [GCV, ganciclovir], the apoptosis rate result in assay [1] and in assay [2] was “not confirmed” throughout.
